# Reference: patent US20260207585A1, “METHODS AND COMPOSITIONS FOR THE TREATMENT OF PARKINSON'S DISEASE, HUNTINGTON'S DISEASE, AMYOTROPHIC LATERAL SCLEROSIS, AND LEARNING DISORDERS” (Cedars-Sinai Medical Center, priority 2022, published 2026)
# Read-outs that look alike come from different tables or passages of the source.
# How the values were obtained:
# DNMT1 = DNMT1 (Homo sapiens, UniProt P26358); assay: Methyltransferase inhibition panel: DNMT1; type: biochemical
# Protocol: (§1) The ability of ETP69 to inhibit methyltransferases was tested.
# DOT1L = DOT1L (Homo sapiens, UniProt Q8TEK3); assay: Methyltransferase inhibition panel: DOT1L; type: biochemical
# Protocol: as §1
# EZH1 Complex = EZH1 Complex (Homo sapiens, UniProt Q92800); assay: Methyltransferase inhibition panel: EZH1 Complex; type: biochemical; conditions: NT1721 20 μM; substrate Core Histone 0.05 mg/mL
# Protocol: as §1
# G9a = target: T1, G9a (Homo sapiens, UniProt Q96KQ7); assay: Methyltransferase inhibition panel: G9a; type: biochemical
# T1 sequence (Q96KQ7 1-1210): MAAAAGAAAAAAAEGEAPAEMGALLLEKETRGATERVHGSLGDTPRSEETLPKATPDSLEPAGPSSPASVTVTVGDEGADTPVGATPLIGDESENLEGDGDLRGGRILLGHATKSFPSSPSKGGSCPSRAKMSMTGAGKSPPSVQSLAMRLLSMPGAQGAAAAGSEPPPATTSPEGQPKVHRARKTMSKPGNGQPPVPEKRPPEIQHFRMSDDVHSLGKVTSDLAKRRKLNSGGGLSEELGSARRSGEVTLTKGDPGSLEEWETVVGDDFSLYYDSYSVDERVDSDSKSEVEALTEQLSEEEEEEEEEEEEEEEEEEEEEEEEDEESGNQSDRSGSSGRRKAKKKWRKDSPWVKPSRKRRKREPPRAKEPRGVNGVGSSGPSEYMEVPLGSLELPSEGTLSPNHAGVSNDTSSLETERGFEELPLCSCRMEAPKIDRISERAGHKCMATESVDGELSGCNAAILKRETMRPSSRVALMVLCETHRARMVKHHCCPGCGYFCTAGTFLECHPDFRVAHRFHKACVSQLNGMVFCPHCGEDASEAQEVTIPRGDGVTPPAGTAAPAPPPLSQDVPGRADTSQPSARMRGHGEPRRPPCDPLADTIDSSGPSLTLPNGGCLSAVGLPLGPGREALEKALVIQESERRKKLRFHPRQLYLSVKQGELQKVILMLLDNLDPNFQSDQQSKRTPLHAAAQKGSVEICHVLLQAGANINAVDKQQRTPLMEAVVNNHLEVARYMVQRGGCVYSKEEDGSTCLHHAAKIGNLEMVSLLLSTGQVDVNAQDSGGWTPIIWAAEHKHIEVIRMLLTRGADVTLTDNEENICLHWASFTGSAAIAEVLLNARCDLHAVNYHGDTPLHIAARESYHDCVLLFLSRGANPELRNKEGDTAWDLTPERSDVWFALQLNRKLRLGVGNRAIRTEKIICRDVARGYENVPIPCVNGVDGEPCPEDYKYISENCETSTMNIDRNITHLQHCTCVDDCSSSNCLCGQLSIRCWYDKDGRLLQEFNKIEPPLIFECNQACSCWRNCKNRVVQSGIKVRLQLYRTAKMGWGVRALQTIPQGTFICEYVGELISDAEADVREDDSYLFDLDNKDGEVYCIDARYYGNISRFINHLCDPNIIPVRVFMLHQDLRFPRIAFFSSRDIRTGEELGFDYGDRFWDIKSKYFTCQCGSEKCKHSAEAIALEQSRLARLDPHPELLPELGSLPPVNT
# Protocol: as §1
# MLL4 Complex = MLL4 Complex (Homo sapiens, UniProt Q9UMN6); assay: Methyltransferase inhibition panel: MLL4 Complex; type: biochemical
# Protocol: as §1
# NSD1 = NSD1 (Homo sapiens, UniProt Q96L73); assay: Methyltransferase inhibition panel: NSD1; type: biochemical
# Protocol: as §1
# PRMT5/MEP50 Complex = PRMT5/MEP50 Complex (Homo sapiens, UniProt O14744); assay: Methyltransferase inhibition panel: PRMT5/MEP50 Complex; type: biochemical
# Protocol: as §1
# PRMT5 (C449S)/MEP50 = PRMT5 (C449S)/MEP50 (Homo sapiens, UniProt O14744, C449S); assay: Methyltransferase inhibition panel: PRMT5 (C449S)/MEP50; type: biochemical
# Protocol: as §1
# PRMT6 = PRMT6 (Homo sapiens, UniProt Q96LA8); assay: Methyltransferase inhibition panel: PRMT6; type: biochemical; conditions: NT1721 20 μM, substrate GST-GAR 5 μM
# Protocol: as §1
# SET7/9 = target: T2, SET7/9 (Homo sapiens, UniProt Q8WTS6); assay: Methyltransferase inhibition panel: SET7/9; type: biochemical
# T2 sequence (Q8WTS6 1-366): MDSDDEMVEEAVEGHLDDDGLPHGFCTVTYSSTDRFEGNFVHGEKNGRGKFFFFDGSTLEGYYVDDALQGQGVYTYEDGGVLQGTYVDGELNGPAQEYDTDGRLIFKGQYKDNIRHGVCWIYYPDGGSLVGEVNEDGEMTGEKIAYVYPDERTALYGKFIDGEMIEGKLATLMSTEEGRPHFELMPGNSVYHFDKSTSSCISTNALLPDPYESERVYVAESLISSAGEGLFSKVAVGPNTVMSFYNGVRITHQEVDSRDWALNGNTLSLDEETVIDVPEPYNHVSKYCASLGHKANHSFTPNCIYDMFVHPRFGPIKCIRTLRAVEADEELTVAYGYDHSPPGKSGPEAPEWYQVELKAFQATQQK
# Protocol: as §1
# [1] = system: wildtype and AD model (APP/PS1-transgenic) mice; assay: Y-Maze test; type: in vivo
# Protocol: The effects of single and repeated ETP69 injections in mice were tested. The experimental timeline is depicted in FIG. 5. Three parallel injection conditions were tested: a single ETP69 condition, a boosted ETP69 injection, and repeated ETP69 injections. The single injection mice received one injection of ETP69 or DMSO at Day 0. The mice that received a boosted injection received one injection of ETP69 or DMSO at day 0 and one injection at day 9. The mice that received repeated injections received 11 injections of ETP69 or DMSO at day 0 or day 9. Both wildtype and AD model (APP/PS1-transgenic) mice were tested.
# Treatment with ETP69 restored CNS-related locomotor, visual, cognitive functions (FIGS. 6A-611). First, the effects of ETP69 on cognitive and visual protection was tested using the Y-Maze test.
# [2] = read-out: Enzyme % Activity (relative to DMSO controls) Data 1
# [3] = read-out: Enzyme % Activity (relative to DMSO controls) Data 2
# [4] = NT1721 20 μM, substrate Nucleosomes 0.05 mg/mL
# Sequence of NSD1 (Q96L73 whole entry): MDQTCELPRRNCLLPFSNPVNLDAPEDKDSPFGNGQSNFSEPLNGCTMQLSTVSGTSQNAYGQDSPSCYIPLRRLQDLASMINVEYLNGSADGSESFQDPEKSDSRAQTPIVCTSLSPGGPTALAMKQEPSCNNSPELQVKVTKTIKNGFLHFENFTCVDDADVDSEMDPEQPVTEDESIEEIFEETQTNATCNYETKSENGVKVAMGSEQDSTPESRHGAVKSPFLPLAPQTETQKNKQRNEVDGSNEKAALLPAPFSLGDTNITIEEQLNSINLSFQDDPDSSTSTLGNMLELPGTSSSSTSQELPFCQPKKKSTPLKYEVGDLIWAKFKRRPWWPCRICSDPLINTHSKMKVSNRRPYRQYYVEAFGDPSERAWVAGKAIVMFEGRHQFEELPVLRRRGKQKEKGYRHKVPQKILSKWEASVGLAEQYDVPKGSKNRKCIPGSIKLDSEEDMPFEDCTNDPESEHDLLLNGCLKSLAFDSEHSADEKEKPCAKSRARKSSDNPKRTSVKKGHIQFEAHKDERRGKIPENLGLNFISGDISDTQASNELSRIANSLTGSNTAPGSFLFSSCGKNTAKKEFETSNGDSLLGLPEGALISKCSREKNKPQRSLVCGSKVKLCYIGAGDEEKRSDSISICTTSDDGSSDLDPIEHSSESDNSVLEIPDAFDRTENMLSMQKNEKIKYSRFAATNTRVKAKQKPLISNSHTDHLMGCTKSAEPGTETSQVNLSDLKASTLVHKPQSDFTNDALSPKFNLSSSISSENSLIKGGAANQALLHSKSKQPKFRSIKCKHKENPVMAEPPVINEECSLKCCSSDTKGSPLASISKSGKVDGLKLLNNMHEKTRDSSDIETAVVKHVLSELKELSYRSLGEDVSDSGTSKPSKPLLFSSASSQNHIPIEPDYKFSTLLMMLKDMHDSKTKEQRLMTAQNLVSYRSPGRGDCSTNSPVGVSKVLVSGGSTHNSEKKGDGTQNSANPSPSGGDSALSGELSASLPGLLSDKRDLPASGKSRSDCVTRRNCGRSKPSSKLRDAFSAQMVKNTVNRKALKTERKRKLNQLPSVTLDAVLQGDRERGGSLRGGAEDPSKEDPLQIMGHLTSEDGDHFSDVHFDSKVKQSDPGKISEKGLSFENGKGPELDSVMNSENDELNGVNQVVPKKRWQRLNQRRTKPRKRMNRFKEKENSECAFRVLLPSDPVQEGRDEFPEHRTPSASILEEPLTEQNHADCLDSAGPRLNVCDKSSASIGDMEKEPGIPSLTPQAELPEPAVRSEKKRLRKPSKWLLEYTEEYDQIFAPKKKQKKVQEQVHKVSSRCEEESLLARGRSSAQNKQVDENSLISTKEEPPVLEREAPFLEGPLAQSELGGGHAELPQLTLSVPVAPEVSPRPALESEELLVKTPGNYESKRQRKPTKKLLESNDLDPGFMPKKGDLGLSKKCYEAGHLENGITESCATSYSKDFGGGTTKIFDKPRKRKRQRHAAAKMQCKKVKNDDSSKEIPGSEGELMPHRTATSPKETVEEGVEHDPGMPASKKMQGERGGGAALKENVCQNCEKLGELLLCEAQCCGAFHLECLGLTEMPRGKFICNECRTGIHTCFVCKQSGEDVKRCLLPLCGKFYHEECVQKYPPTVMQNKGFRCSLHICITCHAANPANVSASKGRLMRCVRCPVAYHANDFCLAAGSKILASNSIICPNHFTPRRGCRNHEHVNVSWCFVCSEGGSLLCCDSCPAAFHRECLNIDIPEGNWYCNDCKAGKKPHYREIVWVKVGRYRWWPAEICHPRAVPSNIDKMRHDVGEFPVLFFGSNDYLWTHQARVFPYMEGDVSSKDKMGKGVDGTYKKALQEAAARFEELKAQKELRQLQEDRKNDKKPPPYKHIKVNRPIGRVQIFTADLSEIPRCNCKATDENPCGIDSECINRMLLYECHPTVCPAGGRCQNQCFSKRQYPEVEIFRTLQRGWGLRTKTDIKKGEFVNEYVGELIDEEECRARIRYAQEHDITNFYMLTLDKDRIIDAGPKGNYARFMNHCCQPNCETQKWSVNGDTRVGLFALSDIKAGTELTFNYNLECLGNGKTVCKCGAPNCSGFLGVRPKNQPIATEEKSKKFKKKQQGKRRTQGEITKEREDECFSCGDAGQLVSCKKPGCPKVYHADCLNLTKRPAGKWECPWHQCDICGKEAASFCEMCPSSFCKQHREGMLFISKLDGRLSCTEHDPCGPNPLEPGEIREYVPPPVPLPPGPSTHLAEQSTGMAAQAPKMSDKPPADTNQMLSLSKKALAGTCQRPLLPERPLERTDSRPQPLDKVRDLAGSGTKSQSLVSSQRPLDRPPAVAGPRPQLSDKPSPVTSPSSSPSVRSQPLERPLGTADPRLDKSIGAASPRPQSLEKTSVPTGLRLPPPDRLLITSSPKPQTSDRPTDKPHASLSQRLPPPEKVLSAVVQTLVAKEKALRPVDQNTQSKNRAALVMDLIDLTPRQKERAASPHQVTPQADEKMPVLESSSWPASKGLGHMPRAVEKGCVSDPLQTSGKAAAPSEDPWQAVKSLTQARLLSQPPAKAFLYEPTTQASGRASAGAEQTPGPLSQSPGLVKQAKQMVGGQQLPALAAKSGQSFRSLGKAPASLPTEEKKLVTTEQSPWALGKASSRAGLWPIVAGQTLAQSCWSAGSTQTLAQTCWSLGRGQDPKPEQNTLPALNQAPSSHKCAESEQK
# Sequence of MLL4 Complex (Q9UMN6 2490-2715): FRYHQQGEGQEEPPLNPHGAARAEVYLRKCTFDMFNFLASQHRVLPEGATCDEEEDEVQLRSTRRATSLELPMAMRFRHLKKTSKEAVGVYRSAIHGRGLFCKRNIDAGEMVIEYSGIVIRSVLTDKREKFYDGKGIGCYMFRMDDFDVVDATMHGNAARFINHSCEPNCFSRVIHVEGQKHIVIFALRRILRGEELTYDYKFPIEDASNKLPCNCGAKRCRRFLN
# Sequence of MLL4 Complex (Q9C005 whole entry, further chain): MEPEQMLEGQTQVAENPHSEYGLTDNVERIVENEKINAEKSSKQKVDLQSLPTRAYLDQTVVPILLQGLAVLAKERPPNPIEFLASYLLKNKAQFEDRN
# Sequence of MLL4 Complex (Q9UBL3 whole entry, further chain): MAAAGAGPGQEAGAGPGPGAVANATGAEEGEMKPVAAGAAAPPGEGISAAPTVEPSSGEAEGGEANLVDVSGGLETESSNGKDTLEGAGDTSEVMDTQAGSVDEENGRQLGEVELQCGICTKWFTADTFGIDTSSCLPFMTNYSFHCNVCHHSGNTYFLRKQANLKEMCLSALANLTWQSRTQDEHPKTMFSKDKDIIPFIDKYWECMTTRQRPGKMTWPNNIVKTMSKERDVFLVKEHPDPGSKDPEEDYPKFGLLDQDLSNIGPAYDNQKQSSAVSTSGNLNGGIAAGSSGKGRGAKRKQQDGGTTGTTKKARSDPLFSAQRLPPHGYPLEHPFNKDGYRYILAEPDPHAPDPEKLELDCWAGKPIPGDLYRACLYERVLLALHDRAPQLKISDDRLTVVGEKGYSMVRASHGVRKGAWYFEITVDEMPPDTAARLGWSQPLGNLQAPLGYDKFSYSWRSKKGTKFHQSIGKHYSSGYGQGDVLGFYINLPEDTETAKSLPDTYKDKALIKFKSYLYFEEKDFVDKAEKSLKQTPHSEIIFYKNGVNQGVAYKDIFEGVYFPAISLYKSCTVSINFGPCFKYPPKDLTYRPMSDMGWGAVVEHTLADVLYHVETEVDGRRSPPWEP
# Sequence of MLL4 Complex (Q15291 whole entry, further chain): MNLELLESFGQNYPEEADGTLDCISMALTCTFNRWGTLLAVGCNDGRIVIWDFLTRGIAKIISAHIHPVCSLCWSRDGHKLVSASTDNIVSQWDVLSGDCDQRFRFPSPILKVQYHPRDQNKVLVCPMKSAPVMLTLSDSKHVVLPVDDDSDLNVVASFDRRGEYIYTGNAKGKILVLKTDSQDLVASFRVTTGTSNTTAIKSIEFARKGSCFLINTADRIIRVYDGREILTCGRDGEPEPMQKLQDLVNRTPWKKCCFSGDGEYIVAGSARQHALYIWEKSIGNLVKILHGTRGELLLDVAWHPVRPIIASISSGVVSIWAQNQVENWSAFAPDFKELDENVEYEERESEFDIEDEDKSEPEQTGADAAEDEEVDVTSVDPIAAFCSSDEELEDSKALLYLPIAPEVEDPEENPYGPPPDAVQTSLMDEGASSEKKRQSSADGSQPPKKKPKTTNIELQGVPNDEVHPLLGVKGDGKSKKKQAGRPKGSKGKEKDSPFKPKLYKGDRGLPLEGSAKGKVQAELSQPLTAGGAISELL
# Sequence of PRMT6 (Q96LA8 whole entry): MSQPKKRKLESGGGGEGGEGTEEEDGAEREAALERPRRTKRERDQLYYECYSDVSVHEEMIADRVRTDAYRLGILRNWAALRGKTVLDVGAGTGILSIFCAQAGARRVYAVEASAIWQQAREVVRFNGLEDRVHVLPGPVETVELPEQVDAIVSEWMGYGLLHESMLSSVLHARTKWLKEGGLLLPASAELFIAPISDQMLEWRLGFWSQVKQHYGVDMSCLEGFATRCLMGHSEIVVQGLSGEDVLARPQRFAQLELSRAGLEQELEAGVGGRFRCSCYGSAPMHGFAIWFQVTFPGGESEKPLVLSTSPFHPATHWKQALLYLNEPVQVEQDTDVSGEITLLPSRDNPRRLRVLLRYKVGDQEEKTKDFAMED
structure (smiles),measurement,setting,value
"CN1C(=O)[C@@]23C[C@](C)(C#N)[C@H](c4ccc5c(c4)OCO5)N2C(=O)[C@]1(C)SS3 (racemic) [ETP69, Rac-(3S,6S,7S,8aS)-6-(benzo[d][1,3]dioxol-5-yl)-2,3,7-trimethyl-1,4-dioxohexahydro-6H-3,8a-epidithiopyrrolo[1,2-a]pyrazine-7-carbonitrile]",remaining activity at 20 µM,DNMT1; [2],105%
same,remaining activity at 20 µM,DNMT1; [3],108%
same,remaining activity at 20 µM,DOT1L; [2],104%
same,remaining activity at 20 µM,DOT1L; [3],98.5%
same,Enzyme % Activity (relative to DMSO controls) Data 1,EZH1 Complex,103.44%
same,Enzyme % Activity (relative to DMSO controls) Data 2,EZH1 Complex,104.86%
same,remaining activity at 2.5 µM,G9a; [2],40.9%
same,remaining activity at 2.5 µM,G9a; [3],38.7%
same,inhibition relative to DMSO controls,G9a; summary of Table 1,at least 7500
same,remaining activity at 20 µM,MLL4 Complex; [2],1.32%
same,remaining activity at 20 µM,MLL4 Complex; [3],1.17%
same,inhibition relative to DMSO controls,MLL4 Complex; summary of Table 1,at least 7500
same,Enzyme % Activity (relative to DMSO controls) Data 1,NSD1; [4],34.29%
same,Enzyme % Activity (relative to DMSO controls) Data 2,NSD1; [4],36.14%
same,inhibition relative to DMSO controls,NSD1; summary of Table 1,at least 7500
same,remaining activity at 20 µM,PRMT5/MEP50 Complex; [2],92.2%
same,remaining activity at 20 µM,PRMT5/MEP50 Complex; [3],93.1%
same,remaining activity at 20 µM,PRMT5 (C449S)/MEP50; [2],121%
same,remaining activity at 20 µM,PRMT5 (C449S)/MEP50; [3],123%
same,remaining activity at 20 µM,PRMT6; [2],128%
same,remaining activity at 20 µM,PRMT6; [3],129%
same,remaining activity at 20 µM,SET7/9; [2],107%
same,remaining activity at 20 µM,SET7/9; [3],107%
same,percent alternation,[1]; AD+ mice vs AD+ DMSO,significant increase
same,number of total entries (locomotor activity),[1]; wildtype and AD+ mice,decreased
